This is an account of results in ChEMBL document CHEMBL2074541, “TP-search Transporter Database” (Hepatology, 1999).

Format in all cases: functional, cell-based
Data set [1] addresses T1, Solute carrier organic anion transporter family member 1A1 (Rattus norvegicus, UniProt P46720).
T1 sequence (P46720 whole entry): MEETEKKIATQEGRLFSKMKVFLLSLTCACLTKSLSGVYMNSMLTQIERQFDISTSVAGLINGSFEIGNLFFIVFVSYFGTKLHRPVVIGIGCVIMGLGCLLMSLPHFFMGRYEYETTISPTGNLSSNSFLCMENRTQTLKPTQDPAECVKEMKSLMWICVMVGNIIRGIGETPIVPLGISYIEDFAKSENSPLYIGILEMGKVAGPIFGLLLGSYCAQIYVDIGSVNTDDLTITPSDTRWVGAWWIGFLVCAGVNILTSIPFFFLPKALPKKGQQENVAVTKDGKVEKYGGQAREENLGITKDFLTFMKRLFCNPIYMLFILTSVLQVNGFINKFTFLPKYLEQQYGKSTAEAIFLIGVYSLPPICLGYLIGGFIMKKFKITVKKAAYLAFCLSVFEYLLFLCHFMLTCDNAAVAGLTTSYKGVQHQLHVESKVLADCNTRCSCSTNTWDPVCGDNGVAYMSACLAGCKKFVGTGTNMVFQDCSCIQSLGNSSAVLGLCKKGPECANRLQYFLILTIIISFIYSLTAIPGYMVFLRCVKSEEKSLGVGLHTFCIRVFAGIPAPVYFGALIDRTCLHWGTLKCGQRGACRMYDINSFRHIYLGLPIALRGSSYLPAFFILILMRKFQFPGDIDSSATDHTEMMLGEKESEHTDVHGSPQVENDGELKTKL
Put plainly: (§1) TP_TRANSPORTER: uptake in Oatp1-expressing HeLa cells. To be noted: human.

Substrate in data set [2]: C[C@H](CCC(=O)NCCS(=O)(=O)O)[C@H]1CC[C@H]2[C@@H]3[C@H](O)C[C@@H]4C[C@H](O)CC[C@]4(C)[C@H]3CC[C@]12C
Described as §1.

Substrate in data set [3]: C[C@H](CCC(=O)NCCS(=O)(=O)O)C1CC[C@H]2[C@@H]3C[C@H](O)[C@@H]4C[C@H](O)CC[C@]4(C)[C@H]3CC[C@]12C
The data set is described as §1.

Substrate in data set [4]: O=C1OC(c2ccc(O)c(S(=O)(=O)O)c2)(c2ccc(O)c(S(=O)(=O)O)c2)c2c(Br)c(Br)c(Br)c(Br)c21
The data set is described as §1.

One may read the Km as the substrate concentration at which the rate is half of its maximum.

Consider `C[C@H](CCC(=O)O)[C@H]1CC[C@H]2[C@@H]3C[C@H](O)[C@@H]4C[C@H](O)CC[C@]4(C)[C@H]3CC[C@]12C` [HYODEOXYCHOLIC_ACID], for which the Activity entry in data set [1] was “substrate [+]”.

Turning to `C[C@H](CCC(=O)NCCS(=O)(=O)O)[C@H]1CC[C@H]2[C@@H]3CC[C@H]4C[C@H](O)CC[C@]4(C)[C@H]3C[C@@H](O)[C@]12C` [TAUROLAGODEOXYCHOLATE], the Activity result in data set [1] was “substrate [+]”. Same read-out and setting: then `C[C@H](CCC(=O)NCCS(=O)(=O)O)[C@H]1CC[C@H]2[C@@H]3C[C@@H](O)[C@@H]4C[C@H](O)CC[C@]4(C)[C@H]3CC[C@]12C` [TAUROMUROCHOLATE], with “substrate [+]”.

B1: Solute carrier organic anion transporter family member 1A1 (Rattus norvegicus) (protein)
chain: MEETEKKIATQEGRLFSKMKVFLLSLTCACLTKSLSGVYMNSMLTQIERQFDISTSVAGLINGSFEIGNLFFIVFVSYFGTKLHRPVVIGIGCVIMGLGCLLMSLPHFFMGRYEYETTISPTGNLSSNSFLCMENRTQTLKPTQDPAECVKEMKSLMWICVMVGNIIRGIGETPIVPLGISYIEDFAKSENSPLYIGILEMGKVAGPIFGLLLGSYCAQIYVDIGSVNTDDLTITPSDTRWVGAWWIGFLVCAGVNILTSIPFFFLPKALPKKGQQENVAVTKDGKVEKYGGQAREENLGITKDFLTFMKRLFCNPIYMLFILTSVLQVNGFINKFTFLPKYLEQQYGKSTAEAIFLIGVYSLPPICLGYLIGGFIMKKFKITVKKAAYLAFCLSVFEYLLFLCHFMLTCDNAAVAGLTTSYKGVQHQLHVESKVLADCNTRCSCSTNTWDPVCGDNGVAYMSACLAGCKKFVGTGTNMVFQDCSCIQSLGNSSAVLGLCKKGPECANRLQYFLILTIIISFIYSLTAIPGYMVFLRCVKSEEKSLGVGLHTFCIRVFAGIPAPVYFGALIDRTCLHWGTLKCGQRGACRMYDINSFRHIYLGLPIALRGSSYLPAFFILILMRKFQFPGDIDSSATDHTEMMLGEKESEHTDVHGSPQVENDGELKTKL
As for B1, the Km in data set [2] worked out at 4.9 µM; in data set [3], 7.5 µM; in data set [4], 3.3 µM.
